From the supplement of paper PMC10307832

Experiments:
Assay in all cases: relative viability (nuclei count vs DMSO), 5 days (fraction); higher = more cells survive
PAC-1 + Alpelisib = compound: C=CCc1cccc(/C=N/NC(=O)CN2CCN(Cc3ccccc3)CC2)c1O [PAC-1] + Cc1nc(NC(=O)N2CCC[C@H]2C(N)=O)sc1-c1ccnc(C(C)(C)C(F)(F)F)c1 [Alpelisib] (partner 2 µM)
Outline: (§1)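 Relative viability divides the nuclei count in treated wells by that in vehicle wells. Lung cancer cell lines were seeded in 1536-well plates, dosed by pin tool the next day, and fixed and stained after 5 days in one step with final 0.05% Triton X-100, 1% formaldehyde and 1 ug/ml Hoechst. Dosing was a single drug or a fixed anchor-drug dose plus five library-drug doses (not always all listed) in √10 steps, and values are medians of duplicate plates imaged at 4×.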

PAC-1 + Decitabine = compound: C=CCc1cccc(/C=N/NC(=O)CN2CCN(Cc3ccccc3)CC2)c1O [PAC-1] + Nc1ncn([C@H]2C[C@H](O)[C@@H](CO)O2)c(=O)n1 [Decitabine] (partner 2 µM)
Outline: as §1

Ibrutinib + Olaparib = compound: C=CC(=O)N1CCC[C@@H](n2nc(-c3ccc(Oc4ccccc4)cc3)c3c(N)ncnc32)C1 [Ibrutinib] + O=C(c1cc(Cc2n[nH]c(=O)c3ccccc23)ccc1F)N1CCN(C(=O)C2CC2)CC1 [Olaparib] (partner 8 µM)
Outline: as §1

BMX-IN-1 + Foretinib = compound: C=CC(=O)Nc1cc(-n2c(=O)ccc3cnc4ccc(-c5ccc(NS(C)(=O)=O)cc5)cc4c32)ccc1C [BMX-IN-1] + COc1cc2c(Oc3ccc(NC(=O)C4(C(=O)Nc5ccc(F)cc5)CC4)cc3F)ccnc2cc1OCCCN1CCOCC1 [Foretinib] (partner 0.25 µM)
Outline: as §1

Cell Line | relative viability (PAC-1 + Alpelisib; first compound 0.02 µM) | relative viability (PAC-1 + Alpelisib; first compound 0.06325 µM) | relative viability (PAC-1 + Alpelisib; first compound 0.2 µM) | relative viability (PAC-1 + Alpelisib; first compound 2 µM) | relative viability (PAC-1 + Decitabine; first compound 0.02 µM) | relative viability (PAC-1 + Decitabine; first compound 0.06325 µM) | relative viability (PAC-1 + Decitabine; first compound 0.2 µM) | relative viability (PAC-1 + Decitabine; first compound 2 µM) | relative viability (Ibrutinib + Olaparib; first compound 0.005 µM) | relative viability (Ibrutinib + Olaparib; first compound 0.01581 µM) | relative viability (Ibrutinib + Olaparib; first compound 0.05 µM) | relative viability (Ibrutinib + Olaparib; first compound 0.1581 µM) | relative viability (Ibrutinib + Olaparib; first compound 0.5 µM) | relative viability (BMX-IN-1 + Foretinib; first compound 0.02 µM) | relative viability (BMX-IN-1 + Foretinib; first compound 0.2 µM) | relative viability (BMX-IN-1 + Foretinib; first compound 0.6325 µM) | relative viability (BMX-IN-1 + Foretinib; first compound 2 µM)
HCC-827 | 0.964 | 0.927 | 0.895 | 1 | 0.354 | 0.285 | 0.277 | 0.292 | 0.699 | 0.667 | 0.568 | 0.681 | 0.216 | 1.01 | 1.02 | 1.03 | 1.03
HOP-62 | 1.07 | 0.875 | 0.798 | 0.85 | 0.255 | 0.213 | 0.177 | 0.236 | 0.549 | 0.387 | 0.504 | 0.628 | 0.381 | 1.26 | 1.27 | 1.09 | 1.1
IA-LM | 0.955 | 0.613 | 0.619 | 0.832 | – | – | – | – | 0.881 | 0.891 | 0.797 | 0.936 | 1.04 | 1.53 | 1.31 | 1.15 | 1.21
LC-2-ad | 0.942 | 0.845 | 0.791 | 0.887 | 0.827 | 0.75 | 0.779 | 0.672 | 0.802 | 0.719 | 0.859 | 0.741 | 0.739 | 0.878 | 0.926 | 0.975 | 0.946
LCLC-97TM1 | – | 0.215 | 0.281 | 0.192 | 0.229 | 0.215 | – | 0.261 | 0.383 | 0.334 | 0.517 | 0.498 | 0.389 | 1.01 | 0.917 | 1.03 | 1.1
LCLC-103H | 0.861 | 0.864 | 1.05 | 0.928 | 0.725 | 0.784 | 0.71 | 0.736 | 0.769 | 0.744 | – | 0.739 | 0.758 | 0.879 | 0.78 | 0.882 | 0.735
LK-2 | 1.08 | 1.22 | 1.2 | 0.971 | 0.328 | 0.284 | 0.264 | 0.335 | 0.633 | 0.691 | 0.715 | 0.628 | 0.425 | 1.59 | 1.54 | 1.04 | 1.03
LOU-NH91 | 0.706 | 0.739 | 0.692 | 0.738 | 0.813 | 0.813 | 0.811 | 0.796 | 0.836 | 0.751 | 0.798 | 0.931 | 0.692 | 0.938 | – | 1.01 | 0.942
LU99A | 0.528 | 0.508 | 0.495 | 0.472 | 0.826 | 0.773 | 0.801 | 0.881 | 0.254 | 0.272 | 0.285 | 0.291 | 0.25 | 0.828 | 0.776 | 0.842 | 0.817
LXF-289 | 1.1 | 1.02 | 1.06 | 1.01 | 0.405 | 0.39 | 0.388 | 0.377 | 1.16 | 0.994 | 1.01 | 1.03 | 1.02 | 1.08 | 1.03 | 1.06 | 1
NCI-H23 | 0.529 | 0.692 | 0.741 | 0.764 | 0.322 | 0.303 | 0.294 | 0.284 | 0.335 | 0.355 | 0.383 | 0.41 | 0.311 | 1.18 | 0.965 | 0.938 | 0.999
NCI-H322M | 0.7 | 0.857 | 0.794 | 0.911 | 0.691 | 0.711 | 0.689 | 0.751 | 0.766 | 0.768 | 0.775 | 0.725 | 0.659 | 1.13 | 0.958 | 0.967 | 0.941
NCI-H522 | – | – | – | – | 0.607 | 0.641 | 0.614 | 0.697 | 0.587 | 0.605 | 0.653 | 0.644 | 0.573 | – | – | – | –
NCI-H1299 | 1.06 | 1 | 1.02 | 1.01 | – | – | – | – | 1 | 0.964 | 0.978 | 0.98 | 0.924 | 1.12 | 1.06 | 1.16 | 1.06
NCI-H1563 | 0.98 | 0.935 | 0.922 | 1.02 | – | – | – | – | – | – | – | – | – | 0.922 | 0.956 | 0.914 | 0.906
NCI-H1623 | – | – | – | – | – | – | – | – | – | – | – | – | – | 0.853 | 1.02 | 0.798 | 0.788
NCI-H1648 | – | – | – | – | 0.415 | 0.577 | 0.452 | 0.551 | 0.626 | 0.552 | 0.653 | 0.766 | 0.481 | – | – | – | –
NCI-H1650 | – | – | – | – | 0.447 | 0.441 | 0.344 | 0.371 | 0.73 | 0.836 | 0.805 | 0.822 | 0.754 | 1.05 | 1.46 | 1.2 | 1.17
NCI-H1703 | 0.364 | 0.414 | 0.356 | 0.344 | – | – | – | – | 0.317 | 0.289 | 0.449 | 0.4 | 0.327 | 0.358 | 0.351 | 0.298 | 0.322
NCI-H1792 | 0.717 | 0.77 | 0.722 | 0.677 | 0.539 | 0.521 | 0.482 | 0.483 | – | 0.506 | 0.402 | 0.353 | 0.379 | – | – | – | –
NCI-H2228 | 0.611 | 0.672 | 0.593 | 0.753 | – | – | – | – | 0.774 | 0.601 | 0.776 | 1.08 | 0.715 | 1.19 | 1.08 | 1.03 | 0.916
NCI-H2342 | – | – | – | – | 0.791 | 0.705 | 0.704 | 0.733 | 0.422 | 0.413 | 0.438 | 0.457 | 0.268 | 1.06 | 1.04 | 1.04 | 1.24
SW 900 | – | – | – | – | – | 0.393 | 0.478 | 0.378 | 0.886 | 0.694 | 0.832 | 1.02 | 0.752 | 0.815 | 0.944 | 0.757 | 0.802
